From patent US20260115170A1, “Method of Ameliorating a Symptom or a Disease in a Human Caused by Fungus” (ISHIHARA SANGYO KAISHA, LTD., priority 2020, published 2026)
In brackets after ≈: the same amount, converted by molar mass.

Assays:
[1] = system: T. interdegitale (TIMM20065 Strain); assay: Test Example 1-7 antimicrobial activity test, minimum inhibitory concentration; format: cell-based, Trichophyton interdegitale; settings: Trichophyton, Sabouraud medium, 28° C. for 72 hours
Procedure: (§1) Test Microbial Strains: Trichophyton rubrum (CBS118892 Strain), T. interdegitale (TIMM20065 Strain), Microsporum canis (TIMM20080 Strain), and Arthroderma vanbreuseghemii (TIMM2789)
(§2) Each microbial strain was cultured in a Sabouraud medium containing 500 μg/mL of cycloheximide and 50 μg/mL of chloramphenicol at 28° C. for 8 days, then spores were collected in physiological saline containing Tween80 (polyoxyethylene sorbitan monooleate: manufactured by Kanto Chemical Co., Inc.) (0.05% (v/v)), and this was filtered through a cell strainer (φ40 μm). The spores were recovered from the filtrate by centrifugation (3500 rpm, 5 minutes) and washed twice with physiological saline, and then a spore suspension was prepared (1×10^7 spores/mL). 10 μL of the spore suspension was inoculated into a Sabouraud medium to which compound No. 1 dissolved in DMSO was added to have a predetermined concentration. After culturing at 28° C. for 72 hours, the presence or absence of microbial growth was investigated, and the minimum inhibitory concentration was determined. As a result, the minimum inhibitory concentration of compound No. 1 for each of the four microbial strains was 10 ppm.

[2] = system: Cryptococcus neoformans (TIMM1316 Strain); assay: Test Example 1-3 antimicrobial activity test, colony formation; format: cell-based; settings: at 20 ppm, Sabouraud medium, 37° C. for 48 hours
Procedure: (§3) Test Microbial Strain: Cryptococcus neoformans (TIMM1316 Strain) Test method: The Cryptococcus microbe cultured in an YPD liquid medium at 37° C. for 20 hours was recovered by centrifugation (3000 rpm, 5 minutes), washed twice with physiological saline, and then suspended in physiological saline, and a microbial liquid was prepared in such a way as to provide 2×10^3 cells/mL. 100 μL of the microbial liquid was applied to a Sabouraud medium to which the test compound dissolved in DMSO was added to have a predetermined concentration. After culturing at 37° C. for 48 hours, the presence or absence of colony formation was investigated.

[3] = system: Candida glabrata (TIMM6054 Strain); assay: Test Example 1-2 antimicrobial activity test, colony formation; format: cell-based; settings: at 200 ppm, YPD medium, 37° C. for 48 hours
Procedure: as §3, with “Candida glabrata (TIMM6054” for “Cryptococcus neoformans (TIMM1316”, “Candida” for “Cryptococcus”, “an YPD” for “a Sabouraud”

[4] = system: Malassezia pachydermatis (TIMM10024); assay: Test Example 1-5 antimicrobial activity test, colony formation inhibition rate after 5 minutes contact; format: cell-based; settings: contact 5 minutes at 30° C., culturing 5 days
Procedure: Test Microbial Strain: Malassezia pachydermatis (TIMM10024)
(§4) The Malassezia microbe cultured at 32° C. for 20 hours in a Sabouraud liquid medium containing Tween80 (polyoxyethylene sorbitan monooleate: manufactured by Kanto Chemical Co., Inc.) (0.05% (v/v)) was recovered by centrifugation (3000 rpm, 5 minutes), washed twice with physiological saline, and then suspended in 10 ml of physiological saline, the resulting suspension was allowed to stand for 15 minutes, and then the supernatant was recovered. […] 100 μL of the microbial liquid resulting from the resuspension was applied to a Sabouraud medium containing Tween80 (0.05% (v/v)) and subjected to culturing at 30° C. for 5 days, then the number of colonies formed there (number of colonies formed in the inventive plot) and the number of colonies in a solvent to which the test compound was not added (the number of colonies formed in the non-agent treated plot) were measured, and the colony formation inhibition rate (%) was determined in the same manner as in Test Example 1-4.

[5] = system: Malassezia Nana (CBS95574); assay: Test Example 1-4 antimicrobial activity test, colony formation inhibition rate after 5 minutes contact; format: cell-based; settings: contact 5 minutes at 30° C., culturing 5 days
Procedure: Test Microbial Strain: Malassezia Nana (CBS95574)
as §4, with “10 mL” for “10 ml”, “determined according to” for “determined in”, “the following expression.” for “the same manner as in Test Example 1-4.”

[6] = system: Candida albicans (TIMM1768 Strain); assay: Test Example 1-1 antimicrobial activity test, colony formation; format: cell-based; settings: at 50 ppm, Sabouraud medium, 37° C. for 48 hours
Procedure: as §3, with “Candida albicans (TIMM1768” for “Cryptococcus neoformans (TIMM1316”, “Candida” for “Cryptococcus”

[7] = system: A. Niger (TIMM4968 Strain); assay: Test Example 1-6 antimicrobial activity test, minimum inhibitory concentration; format: cell-based; settings: Aspergillus niger, Sabouraud medium, 28° C. for 48 hours
Procedure: (§5) Test Microbial Strains: Aspergillus fumigatus (TIMM0063 Strain), and A. Niger (TIMM4968 Strain) Test method: The Aspergillus microbe was cultured in a PDA medium at 27° C. for 3 days, then spores were collected in physiological saline containing Tween80 (polyoxyethylene sorbitan monooleate: manufactured by Kanto Chemical Co., Inc.) (0.05% (v/v)), and this was filtered through a cell strainer (+40 μm). The spores were recovered from the filtrate by centrifugation (3500 rpm, 5 minutes) and washed twice with physiological saline, and then a spore suspension was prepared (1×10^7 spores/mL). 10 μL of the spore suspension was inoculated into a Sabouraud medium to which compound No. 1 dissolved in DMSO was added to have a predetermined concentration. After culturing at 28° C. for 48 hours, the presence or absence of microbial growth was investigated, and the minimum inhibitory concentration was determined.

[8] = system: Aspergillus fumigatus (TIMM0063 Strain); assay: as above; format: cell-based; settings: Sabouraud medium, 28° C. for 48 hours
Procedure: as §5

[9] = system: Trichophyton rubrum (CBS118892 Strain); assay: Test Example 1-7 antimicrobial activity test, minimum inhibitory concentration; format: cell-based; settings: Sabouraud medium, 28° C. for 72 hours
Procedure: as §1, §2

[10] = system: Arthroderma vanbreuseghemii (TIMM2789); assay: as above; format: cell-based; settings: Trichophyton mentagrophytes, Sabouraud medium, 28° C. for 72 hours
Procedure: as §1, §2

[11] = system: Microsporum canis (TIMM20080 Strain); assay: as above; format: cell-based; settings: Sabouraud medium, 28° C. for 72 hours
Procedure: as §1, §2

SMILES: Cc1ccc(-c2nc(C#N)[nH]c2Cl)cc1 [Compound No. 1, 5-Chloro-4-(4-methylphenyl)-1H-imidazole-2-carbonitrile]
- MIC [1]: 10 µg/mL (≈ 45.9 µM)
- colony formation [2]: completely suppressed colony formation
- colony formation [3]: completely suppressed colony formation
- inhibition at 100 ppm ([4]; at 100 ppm): 98.1%
- inhibition at 200 ppm ([4]; at 200 ppm): 100%
- inhibition at 100 ppm ([5]; at 100 ppm): 98.5%
- inhibition at 200 ppm ([5]; at 200 ppm): 99.9%
- colony formation [6]: completely inhibited colony formation
- MIC [7]: 100 µg/mL (≈ 459 µM)
- MIC [8]: 100 µg/mL (≈ 459 µM)
- MIC [9]: 10 µg/mL (≈ 45.9 µM)
- MIC [10]: 10 µg/mL (≈ 45.9 µM)
- MIC [11]: 10 µg/mL (≈ 45.9 µM)
